Assays:
IKKε = IKKε (Homo sapiens (Human), UniProt Q14164); assay: TR-FRET kinase assay, IKKε; format: biochemical; details: full length recombinant IKKε 0.3 nM, 2x Km ATP, 1 μM peptide, 240 min at 25° C.; geometric mean of minimum four determinations
Source text: Biological Assay for TBK1 and IKKs:

TBK1 = TBK1 (Homo sapiens (Human), UniProt Q9UHD2); assay: TR-FRET kinase assay, TBK1; details: read-out: TBK1-IC50; full length recombinant TBK1 2.5 nM, 2x Km ATP, 1 μM peptide, 240 min at 25° C.; geometric mean of minimum four determinations
Sequence of TBK1 (Q9UHD2 whole entry): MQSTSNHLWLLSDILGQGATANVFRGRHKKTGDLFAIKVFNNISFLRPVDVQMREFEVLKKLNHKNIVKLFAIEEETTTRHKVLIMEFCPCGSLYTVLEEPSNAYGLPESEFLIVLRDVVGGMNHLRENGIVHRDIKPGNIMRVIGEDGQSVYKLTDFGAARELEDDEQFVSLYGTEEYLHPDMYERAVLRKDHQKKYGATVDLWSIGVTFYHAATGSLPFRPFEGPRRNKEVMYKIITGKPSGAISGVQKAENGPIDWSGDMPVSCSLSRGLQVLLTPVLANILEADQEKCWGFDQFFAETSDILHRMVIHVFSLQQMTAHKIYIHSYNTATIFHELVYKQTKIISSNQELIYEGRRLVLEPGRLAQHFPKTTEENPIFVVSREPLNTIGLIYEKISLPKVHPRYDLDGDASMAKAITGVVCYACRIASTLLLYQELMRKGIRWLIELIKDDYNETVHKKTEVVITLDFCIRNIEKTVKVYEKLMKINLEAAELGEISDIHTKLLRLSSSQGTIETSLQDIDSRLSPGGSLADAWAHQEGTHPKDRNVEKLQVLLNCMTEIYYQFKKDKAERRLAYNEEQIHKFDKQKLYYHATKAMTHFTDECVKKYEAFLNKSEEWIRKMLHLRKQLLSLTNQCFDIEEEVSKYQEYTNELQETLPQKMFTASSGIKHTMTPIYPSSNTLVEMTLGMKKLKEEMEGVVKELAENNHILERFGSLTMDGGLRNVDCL

Sequence of IKKε (Q14164 whole entry): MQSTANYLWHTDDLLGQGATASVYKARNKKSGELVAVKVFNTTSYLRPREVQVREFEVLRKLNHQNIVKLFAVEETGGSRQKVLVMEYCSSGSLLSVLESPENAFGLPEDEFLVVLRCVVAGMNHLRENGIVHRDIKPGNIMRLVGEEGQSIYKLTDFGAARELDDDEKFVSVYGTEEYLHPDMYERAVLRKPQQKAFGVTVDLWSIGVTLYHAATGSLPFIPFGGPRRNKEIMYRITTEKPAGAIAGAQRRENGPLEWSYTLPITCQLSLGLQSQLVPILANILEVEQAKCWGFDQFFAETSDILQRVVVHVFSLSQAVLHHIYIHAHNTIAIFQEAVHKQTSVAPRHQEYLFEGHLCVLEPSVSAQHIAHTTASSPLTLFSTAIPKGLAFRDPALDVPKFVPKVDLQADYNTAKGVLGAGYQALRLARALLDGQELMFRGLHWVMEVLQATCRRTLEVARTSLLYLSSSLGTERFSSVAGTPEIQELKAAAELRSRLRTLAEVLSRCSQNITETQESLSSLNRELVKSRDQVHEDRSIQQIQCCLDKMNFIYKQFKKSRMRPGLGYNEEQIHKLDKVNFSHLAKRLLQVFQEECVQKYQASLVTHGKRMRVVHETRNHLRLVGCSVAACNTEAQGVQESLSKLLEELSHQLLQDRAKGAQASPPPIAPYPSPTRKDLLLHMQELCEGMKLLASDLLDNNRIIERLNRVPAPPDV

SMILES | IC50 (IKKε) | IC50 (TBK1)
COc1cc(-c2cc3c(-c4ccc(OC5CCOCC5)c(C#N)c4)ncnc3[nH]2)ccc1N1CCN(C2COC2)CC1 [Example 143, 5-(6-(3-methoxy-4-(4-(oxetan-3-yl)piperazin-1-yl)phenyl)-7H-pyrrolo[2,3-d]pyrimidin-4-yl)-2-((tetrahydro-2H-pyran-4-yl)oxy)benzonitrile] | 6.9 nM | 1.02 nM
N#Cc1cc(-c2ccnc3[nH]c(-c4ccc5c(c4)OCC(=O)N5)cc23)ccc1OC1CCOCC1 [Example 75, 5-(2-(3-oxo-3,4-dihydro-2H-benzo[b][1,4]oxazin-7-yl)-1H-pyrrolo[2,3-b]pyridin-4-yl)-2-((tetrahydro-2H-pyran-4-yl)oxy)benzonitrile] | 10.5 nM | 6.28 nM
Cn1cc(-c2nc3c(-c4ccc(OC5CCOCC5)c(C#N)c4)ccnc3[nH]2)cn1 [Example 307, 5-(2-(1-methyl-1H-pyrazol-4-yl)-3H-imidazo[4,5-b]pyridin-7-yl)-2-((tetrahydro-2H-pyran-4-yl)oxy)benzonitrile] | 21.3 nM | 44.2 nM
N#Cc1cc(-c2ccnc3[nH]c(-c4cnn(C5CNC5)c4)cc23)ccc1OC1CCOCC1 [Example 9, 5-(2-(1-(azetidin-3-yl)-1H-pyrazol-4-yl)-1H-pyrrolo[2,3-b]pyridin-4-yl)-2-((tetrahydro-2H-pyran-4-yl)oxy)benzonitrile] | 1.41 nM | 2.38 nM
COc1cc(-c2cc3c(-c4ccc(OC5CCNCC5(F)F)c(C#N)c4)ncnc3[nH]2)ccc1N1CCN(C2COC2)CC1 (centres unmarked) [Example 140, 2-((3,3-difluoropiperidin-4-yl)oxy)-5-(6-(3-methoxy-4-(4-(oxetan-3-yl)piperazin-1-yl)phenyl)-7H-pyrrolo[2,3-d]pyrimidin-4-yl)benzonitrile] | 32.9 nM | 3.55 nM
N#Cc1cc(-c2ncnc3[nH]c(-c4ccc(N5CCOCC5)cc4)nc23)ccc1OC1CCN(S(N)(=O)=O)CC1 [Example 262, 4-(2-cyano-4-(8-(4-morpholinophenyl)-9H-purin-6-yl)phenoxy)piperidine-1-sulfonamide] | 4.22 nM | 2.08 nM
N#Cc1cc(-c2ncnc3[nH]c(-c4ccc(N5CCNCC5)cc4)cc23)ccc1OC1CCOCC1 [Example 200, 5-(6-(4-(piperazin-1-yl)phenyl)-7H-pyrrolo[2,3-d]pyrimidin-4-yl)-2-((tetrahydro-2H-pyran-4-yl)oxy)benzonitrile] | 1.03 nM | 0.644 nM
N#Cc1cc(-c2ncnc3[nH]c(-c4ccc(N5CCN(C6COC6)CC5)cc4)cc23)ccc1OC1CCN(C(=O)CO)CC1 [Example 157, 2-((1-(2-hydroxyacetyl)piperidin-4-yl)oxy)-5-(6-(4-(4-(oxetan-3-yl)piperazin-1-yl)phenyl)-7H-pyrrolo[2,3-d]pyrimidin-4-yl)benzonitrile] | 1.43 nM | 0.849 nM
N#Cc1cc(-c2ccnc3[nH]c(-c4ccc(N5CCN(C6COC6)CC5)cc4)cc23)ccc1OC1CCOCC1 [Example 85, 5-(2-(4-(4-(oxetan-3-yl)piperazin-1-yl)phenyl)-1H-pyrrolo[2,3-b]pyridin-4-yl)-2-((tetrahydro-2H-pyran-4-yl)oxy)benzonitrile] | 3.5 nM | 1.31 nM
COc1cc(N2CCOCC2)ccc1-c1cc2c(-c3ccc(OC4CCOCC4)c(C#N)c3)ncnc2[nH]1 [Example 137, 5-(6-(2-methoxy-4-morpholinophenyl)-7H-pyrrolo[2,3-d]pyrimidin-4-yl)-2-((tetrahydro-2H-pyran-4-yl)oxy)benzonitrile] | 47.5 nM | 9.78 nM
COc1ccc(-c2cc3c(-c4ccc(OC5CCN(C(=O)CO)CC5)c(C#N)c4)ncnc3[nH]2)cc1 [Example 126, 2-((1-(2-hydroxyacetyl)piperidin-4-yl)oxy)-5-(6-(4-methoxyphenyl)-7H-pyrrolo[2,3-d]pyrimidin-4-yl)benzonitrile] | 3.29 nM | 1.34 nM
N#Cc1cc(-c2ccnc3[nH]c(-c4ccc(N5CCOCC5)cc4)cc23)ccc1O[C@H]1CCN(C(=O)CO)C1 [Example 23, (S)-2-((1-(2-hydroxyacetyl)pyrrolidin-3-yl)oxy)-5-(2-(4-morpholinophenyl)-1H-pyrrolo[2,3-b]pyridin-4-yl)benzonitrile] | 64.9 nM | 16.2 nM
N#Cc1cc(-c2ncnc3[nH]c(-c4ccc(N5CCOCC5)cc4)cc23)ccc1O[C@@H]1CCNC1 [Example 106, (R)-5-(6-(4-morpholinophenyl)-7H-pyrrolo[2,3-d]pyrimidin-4-yl)-2-(pyrrolidin-3-yloxy)benzonitrile] | 19 nM | 4.94 nM
Cc1cc(N2CCOCC2)ccc1-c1cc2c(-c3ccc(OC4CCN(C(=O)CO)CC4)c(C#N)c3)ncnc2[nH]1 [Example 121, 2-((1-(2-hydroxyacetyl)piperidin-4-yl)oxy)-5-(6-(2-methyl-4-morpholinophenyl)-7H-pyrrolo[2,3-d]pyrimidin-4-yl)benzonitrile] | 4.4 nM | 1.28 nM
CC(C)(C)OC(=O)N1CCC(Oc2ccc(-c3ncnc4[nH]c(-c5ccc(N6CCOCC6)c(F)c5)nc34)cc2C#N)CC1 [Example 245, tert-butyl 4-(2-cyano-4-(8-(3-fluoro-4-morpholinophenyl)-9H-purin-6-yl)phenoxy)piperidine-1-carboxylate] | 1000 nM | 1000 nM
N#Cc1cc(-c2ccnc3[nH]c(-c4ccc(N5CCOCC5)cc4)cc23)ccc1OC1CCN(C(=O)CO)CC1 [Example 19, 2-((1-(2-hydroxyacetyl)piperidin-4-yl)oxy)-5-(2-(4-morpholinophenyl)-1H-pyrrolo[2,3-b]pyridin-4-yl)benzonitrile] | 3.72 nM | 1.9 nM
CC(C)(C)OC(=O)N1CC[C@@H](Oc2ccc(-c3ncnc4[nH]c(-c5ccc(N6CCOCC6)cc5)nc34)cc2C#N)C1 [Example 206, (R)-tert-butyl 3-(2-cyano-4-(8-(4-morpholinophenyl)-9H-purin-6-yl)phenoxy)pyrrolidine-1-carboxylate] | > 1000 nM | > 1000 nM
N#Cc1cc(-c2ncnc3[nH]c(-c4ccc(N5CCOCC5)c(F)c4)nc23)ccc1OC1CCN(C(=O)CO)CC1 [Example 241, 5-(8-(3-fluoro-4-morpholinophenyl)-9H-purin-6-yl)-2-((1-(2-hydroxyacetyl)piperidin-4-yl)oxy)benzonitrile] | 2.64 nM | 1.3 nM
N#Cc1cc(-c2ncnc3[nH]c(-c4cccc(Cn5ccnc5)c4)cc23)ccc1OC1CCOCC1 [Example 119, 5-(6-(3-((1H-imidazol-1-yl)methyl)phenyl)-7H-pyrrolo[2,3-d]pyrimidin-4-yl)-2-((tetrahydro-2H-pyran-4-yl)oxy)benzonitrile] | 1.22 nM | 1.23 nM
CC(C)(O)c1ccc(-c2cc3c(-c4ccc(O[C@@H]5CCN(C(=O)CO)C5)c(C#N)c4)ccnc3[nH]2)cc1 [Example 149, (R)-2-((1-(2-hydroxyacetyl)pyrrolidin-3-yl)oxy)-5-(2-(4-(2-hydroxypropan-2-yl)phenyl)-1H-pyrrolo[2,3-b]pyridin-4-yl)benzonitrile] | 2.27 nM | 1.54 nM
CNC(=O)c1cccc(-c2cc3c(-c4ccc(OC5CCOCC5)c(C#N)c4)ccnc3[nH]2)c1 [Example 40, 3-(4-(3-cyano-4-((tetrahydro-2H-pyran-4-yl)oxy)phenyl)-1H-pyrrolo[2,3-b]pyridin-2-yl)-N-methylbenzamide] | 11.1 nM | 7.98 nM
N#CCC(=O)N1CCC(Oc2ccc(-c3ccnc4[nH]c(-c5ccc(N6CCOCC6)cc5)cc34)cc2C#N)CC1 [Example 20, 2-((1-(2-cyanoacetyl)piperidin-4-yl)oxy)-5-(2-(4-morpholinophenyl)-1H-pyrrolo[2,3-b]pyridin-4-yl)benzonitrile] | 27.5 nM | 9.25 nM
CC(=O)N1CCC(Oc2ccc(-c3ncnc4[nH]c(-c5ccc(N6CCOCC6)cc5)nc34)cc2C#N)CC1 [Example 249, 2-((1-acetylpiperidin-4-yl)oxy)-5-(8-(4-morpholinophenyl)-9H-purin-6-yl)benzonitrile] | 14.2 nM | 6.09 nM
N#Cc1cc(-c2cc3c(-c4ccc(N5CC(O)C5)c(C#N)c4)ncnc3[nH]2)ccc1N1CC(O)C1 [Example 230, 5,5′-(7H-pyrrolo[2,3-d]pyrimidine-4,6-diyl)bis(2-(3-hydroxyazetidin-1-yl)benzonitrile)] | 324 nM | 13.4 nM
N#Cc1cc(-c2ccnc3[nH]c(-c4ccc(N5CCOCC5)cc4)cc23)ccc1O[C@@H]1CCN(CC(F)F)C1 [Example 31, (R)-2-((1-(2,2-difluoroethyl)pyrrolidin-3-yl)oxy)-5-(2-(4-morpholinophenyl)-1H-pyrrolo[2,3-b]pyridin-4-yl)benzonitrile] | 59.2 nM | 19.1 nM
N#Cc1cc(-c2c(F)cnc3[nH]c(-c4ccc(OCCN5CCCC5)cc4)cc23)ccc1OC1CCOCC1 [Example 174, 5-(5-fluoro-2-(4-(2-(pyrrolidin-1-yl)ethoxy)phenyl)-1H-pyrrolo[2,3-b]pyridin-4-yl)-2-((tetrahydro-2H-pyran-4-yl)oxy)benzonitrile] | 8.3 nM | 6.35 nM
N#Cc1cc(-c2ncnc3[nH]c(-c4ccc(C5CCN(CC(F)F)CC5)cc4)nc23)ccc1OC1CCN(C=O)CC1 [Example 258, 5-(8-(4-(1-(2,2-difluoroethyl)piperidin-4-yl)phenyl)-9H-purin-6-yl)-2-((1-formylpiperidin-4-yl)oxy)benzonitrile] | 12.9 nM | 6.4 nM
CC(C)(C)OC(=O)N1CCC(Oc2ccc(-c3ncnc4[nH]c(-c5ccc(N6CCOCC6)cc5)nc34)cc2C#N)CC1 [Example 203, tert-butyl 4-(2-cyano-4-(8-(4-morpholinophenyl)-9H-purin-6-yl)phenoxy)piperidine-1-carboxylate] | > 1000 nM | > 1000 nM

— US10072001B2, “Tank-binding kinase inhibitor compounds” (Gilead Sciences, Inc., priority 2014, dated 2018)
